In paper PMC9416004, “A Versatile Class of 1,4,4-Trisubstituted Piperidines Block Coronavirus Replication In Vitro” (Pharmaceuticals, 2022):
Where two headings read alike, the source gives them in different places.

Key:
[1] = test system: human embryonic lung (HEL) fibroblast cells; settings: mock-infected HEL cells; microscopically visible alterations in cell morphology
[2] = in vitro; settings: human
[3] = molecular target: SARS-CoV-2 nsp5 main protease (M^pro) (Severe acute respiratory syndrome coronavirus 2, UniProt P0DTD1); test: FRET-based M^pro enzymatic assay; assay type: biochemical; settings: for IC50 on SARS-CoV-2 M^pro enzyme activity: 80 nM nsp5, 5 μM Dabcyl-KTSAVLQSGFRKM-Edans-NH2 substrate, mean ± SEM (N = 3)
Procedure: Serial dilutions of the compounds were incubated with purified nsp5 protein in the presence of substrate (Dabcyl-KTSAVLQ↓SGFRKM-Edans-NH2), and peptide cleavage was followed by an increase in fluorescence. The compounds’ IC50 values were determined by Hill curve fitting. Values are the mean ± SEM (N = 3).
After transforming the pGEX-6P-1 plasmid in E. coli BL21 DE3 gold, nsp5 production was stimulated by overnight induction with 250 μM IPTG at a temperature of 17 °C. After centrifugation, the bacteria were resuspended in buffer consisting of: 50 mM Tris pH 8; 300 mM NaCl; 5 mM MgSO4; 1 mM PMSF; 10 μg/mL DNAse I; 0.25 mg/mL Lysozyme; 0.1%Triton X-100; and 10% glycerol. The cells were lysed by three cycles of sonication and centrifugation. The nsp5 protein was bound to Co-NTA agarose beads and eluted in lysis buffer containing 250 mM of imidazole. Next, the protein product was concentrated on a Vivaspin 20 centrifugal concentrator (10 kDa cut-off; GE Healthcare) and imidazole was removed by dialysis. Finally, the purified nsp5 was stored at −80 °C with 50% glycerol.
M^pro enzymatic assay. The fluorescence resonance energy transfer (FRET)-based protease assay was performed in black 384-well plates. Briefly, serial dilutions of the compounds were incubated with 80 nM nsp5 protein and 5 μM peptide substrate (Dabcyl-KTSAVLQ↓SGFRKM-Edans-NH2; Genscript) in buffer consisting of: 20 mM HEPES pH 6.5; 120 mM NaCl; 0.4 mM EDTA; 4 mM dithiothreitol; and 10% glycerol. The final DMSO content was 0.5%. Cleavage of the substrate was monitored for 40 min by measuring the increasing fluorescence in a Tecan Safire 2 plate reader (wavelength settings: excitation at 335 nm and emission at 493 nm). For each condition, enzyme activity was derived from the slope for the linear part of the curve and expressed relative to the activity in the condition receiving no compound. To determine the IC50 values, GraphPad Prism software was used to plot the % of enzyme activity against compound concentration and then fit the curves according to the equation Y = 100/(1 + (X/IC50)^HillSlope).

[4] = test system: HCoV-229E; test: Cytopathic effect (CPE) reduction assay with HCoV-229E in HEL cells; assay type: cell-based, human coronavirus 229E; settings: for EC50: Human coronavirus 229E, 120 h; for Selectivity Index MTS: ratio of CC50 to EC50-MTS; for Selectivity Index MTS / Selectivity Index Microscopy: only values of 10 or higher shown; for Selectivity Index Microscopy: ratio of MCC to EC50-microscopy
[5] = in vitro; settings: human; remark: listed apart in the source
[6] = test system: SARS-CoV-2; test: RT-qPCR-based SARS-CoV-2 viral load reduction assay in A549-AT cells; assay type: cell-based; settings: for Antiviral activity EC99: 100-fold reduction in viral RNA copies in supernatant at day 3 p.i.; for EC90: Severe acute respiratory syndrome coronavirus 2, 72 h, 10-fold reduction in viral RNA copies in supernatant at day 3 p.i., read-out: Antiviral activity EC90
[7] = test system: HCoV-229E; test: One-cycle time-of-compound addition (TOA) assay with HCoV-229E in HEL cells; assay type: cell-based, human coronavirus 229E
[8] = molecular target: SARS-CoV-2 nsp14 N7-MTase (Severe acute respiratory syndrome coronavirus 2, UniProt P0DTD1); test: Radioactive filter-binding MTase assay, nsp14; assay type: biochemical; settings: compound concentration of 200 µM
[9] = molecular target: SARS-CoV-2 nsp10/nsp16 2'O-MTase (Severe acute respiratory syndrome coronavirus 2, UniProt P0DTD1); test: Radioactive filter-binding MTase assay, nsp10/nsp16; assay type: biochemical; settings: compound concentration of 200 µM
[10] = HCoV-229E-infected HEL cells, protection against virus-induced CPE by MTS cell viability assay, five days at 35 °C, read-out: Antiviral EC50 MTS
[11] = HCoV-229E-infected HEL cells, protection against virus-induced CPE by microscopic scoring, five days at 35 °C, read-out: Antiviral EC50 Microscopy
[12] = compound added at 8 h p.i., HEL cells lysed at 16 h p.i., 33 15 µM, GC376 25 µM, GS-441524 20 µM, K22 15 µM

Row | SMILES | Cytotoxicity MCC (minimal cytotoxic concentration) [1] | CC50 [2] | IC50 [3] | EC50 [4, 10] | EC50 [4, 11] | Antiviral activity EC99 [6] | EC90 [6] | Selectivity Index MTS [4] | Selectivity Index Microscopy [4] | further results
1 | COC(=O)C[C@H](NC(=O)OC(C)(C)C)C(=O)N(Cc1ccccc1)C1(C(=O)NCc2ccccc2)CCN(Cc2ccccc2)CC1 [Compound 1] | >100 µM | > 100 µM | 161 ± 35 µM | > 100 µM | > 100 µM | – | – | – | – | IC50 on SARS-CoV-2 M^pro enzyme activity [3]: only marginal activity; Antiviral EC50 MTS ([4]; HCoV-229E-infected HEL cells, protection against virus-induced CPE by MTS cell viability assay, five days at 35 °C): no activity
2 | COC(=O)C[C@H](NC(=O)OCc1ccccc1)C(=O)N(Cc1ccccc1)C1(C(=O)NCc2ccccc2)CCN(Cc2ccccc2)CC1 [Compound 33] | >100 µM | > 100 µM | 64 ± 8 µM | 3.3 ± 0.4 µM | 3 ± 0.1 µM | 14 µM | 9.3 µM | >30 | >33 | CC50 [5]: 90 µM; inhibition of viral RNA synthesis [7, 12]: losing some activity
3 | COC(=O)C[C@H](NC(=O)OCc1ccccc1)C(=O)N(Cc1ccc(F)cc1)C1(C(=O)NCc2ccccc2)CCN(Cc2ccccc2)CC1 [Compound 34] | 81 µM | – | 38 ± 5 µM | 3.4 ± 0.4 µM | 3.1 ± 0.1 µM | 13 µM | 8 µM | 22 | 26 | inhibition at 200 µM [8]: 80%
4 | CC(C)(C)OC(=O)N[C@@H](Cc1ccccc1)C(=O)N(Cc1ccc(F)cc1)C1(C(=O)NCc2ccccc2)CCN(Cc2ccccc2)CC1 [Compound 45] | 50 µM | 4.4 ± 0.8 µM | 15 ± 2 µM | 1.1 ± 0.2 µM | 0.85 ± 0.07 µM | – | – | – | – | –
5 | CC(C)(C)OC(=O)N[C@@H](Cc1ccccc1)C(=O)N(Cc1ccccc1)C1(C(=O)NCc2ccccc2)CCN(Cc2ccccc2)CC1 [Compound 46] | ≥100 µM | 75 µM | 22 ± 2 µM | 4.5 ± 0.2 µM | 7.4 ± 1.3 µM | – | – | 17 | ≥14 | –
6 | Cc1ccc(CC(NC(=O)OC(C)(C)C)C(=O)N(Cc2ccccc2)C2(C(=O)NCc3ccccc3)CCN(Cc3ccccc3)CC2)cc1 (stereo not drawn) [Compound 52, Tert-butyl(1-(benzyl(1-benzyl-4-benzylcarbamoylpiperidin-4-yl)amino)-1-oxo-3-(p-tolyl)propan-2-yl)carbamate] | ≥100 µM | – | 14 ± 4 µM | 4.7 ± 0.6 µM | 6.6 ± 1.8 µM | 3.9 µM | 1.7 µM | >21 | ≥15 | –
7 | CC(C)(C)OC(=O)NC(Cc1ccccc1)C(=O)N(Cc1ccccc1)C1(C(=O)NCc2ccccc2)CCN(Cc2ccc(F)cc2)CC1 (stereo not drawn) [Compound 60, Tert-butyl(1-(benzyl(4-benzylcarbamoyl-1-(4-fluorobenzyl)piperidin-4-yl)amino)-1-oxo-3-phenylpropan-2-yl)carbamate] | ≥100 µM | – | 68 ± 21 µM | 4 ± 0.1 µM | 4.5 ± 0.2 µM | 5.2 µM | 2.2 µM | >25 | – | inhibition at 200 µM [9]: 80%
8 | CC(C)(C)OC(=O)NC(Cc1ccccc1)C(=O)N(Cc1ccccc1)C1(C(=O)NCc2ccccc2)CCN(Cc2ccc([N+](=O)[O-])cc2)CC1 (stereo not drawn) [Compound 63, Tert-butyl(1-(benzyl(4-benzylcarbamoyl-1-(4-nitrobenzyl)piperidin-4-yl)amino)-1-oxo-3-phenylpropan-2-yl)carbamate] | ≥100 µM | > 100 µM | 196 ± 39 µM | 77 ± 9 µM | 82 ± 15 µM | – | – | – | – | IC50 on SARS-CoV-2 M^pro enzyme activity [3]: only marginal activity
9 | CCOC(=O)[C@H]1O[C@@H]1C(=O)N[C@@H](CC(C)C)C(=O)NCCC(C)C [Compound E64d] | – | – | – | – | – | – | – | – | – | inhibition of viral RNA synthesis ([7]; compound addition delayed until 4 h p.i., HEL cells lysed at 16 h p.i., E64d 15 µM, bafilomycin 0.00625 µM): 46%
10 | O=C(N/C(=C\c1ccccc1)C(=O)N1CCC(O)(c2ccc(Br)cc2)CC1)c1ccccc1 [Compound K22, (Z)-N-[3-[4-(4-bromophenyl)-4-hydroxypiperidin-1-yl]-3-oxo-1-phenylprop-1-en-2-yl]benzamide, reference compound] | 50 µM | 28 ± 3 µM | – | 3.6 ± 0.6 µM | 2.6 ± 0.5 µM | – | – | – | 19 | inhibition of viral RNA synthesis [7, 12]: 100%
11 | CC(C)C[C@H](NC(=O)OCc1ccccc1)C(=O)N[C@@H](C[C@@H]1CCNC1=O)C(O)S(=O)(=O)[O-].[Na+] (stereo partly drawn) [GC376] | – | – | – | – | – | – | – | – | – | inhibition of viral RNA synthesis ([7]; […], 33 15 µM, GC376 25 µM, GS-441524 20 µM, K22 15 µM): ~ 90%
12 | N#C[C@@]1(c2ccc3c(N)ncnn23)O[C@H](CO)[C@@H](O)[C@H]1O [GS-441524, reference compound] | >100 µM | – | – | 2.3 ± 0.2 µM | 3.5 µM | 4.6 µM | 3.2 µM | >43 | >29 | inhibition of viral RNA synthesis [7, 12]: ~ 90%
13 | CO/C1=C\C(C)=C\[C@@H](C)[C@@H](O)[C@@H](C)C/C(C)=C/C=C/[C@H](OC)[C@@H]([C@@H](C)[C@@H](O)[C@H](C)[C@@]2(O)C[C@@H](O)[C@H](C)[C@@H](C(C)C)O2)OC1=O [bafilomycin] | – | – | – | – | – | – | – | – | – | inhibition of viral RNA synthesis [7]: 9%
